Molecular target: α4β7 integrin (Homo sapiens (Human), UniProt P13612+P26010)
Test: α4β7 Integrin Cell Capture Assay
Format: cell-based
Protocol: α4β7 Integrin Cell Capture Assay
The potency of inhibitors in preventing α4β7 integrin interaction with MadCAM-1 was measured by monitoring the capture of α4β7 integrin expressing cells on a recombinant MadCAM-1 extracellular domain-coated plate. […] The plates were then washed with PBS and blocked with 3% BSA for 2 hours before being washed again.
RPM18866 cells were spun down and re-suspended in assay medium (DMEM+0.5% FBS+0.5 mM MnCl2) at a density of 0.5×10^6 cells/mL. […] The plates were incubated at 37° C. for 1 hour. 50 μL of cells were transferred to the blocked, MadCAM-1-coated plates and incubated for 30 minutes at 37° C. […] The plates were incubated for 90 minutes at room temperature. The plates were then washed 3 times with 70 μL of PBS per well and imaged on a Cellomics ArrayScan instrument. The cells that were bound to the plate were counted and plotted against the compound concentration to determine the EC50 of the test compounds.

[1] = Table 1, capture of α4β7 expressing RPM18866 cells on MadCAM-1 extracellular domain-coated plate
[2] = Table 2, capture of α4β7 expressing RPM18866 cells on MadCAM-1 extracellular domain-coated plate
[3] = RPMI8866 cells captured on MadCAM-1 extracellular domain-coated plate

Sequence of α4β7 integrin (P13612 34-1032): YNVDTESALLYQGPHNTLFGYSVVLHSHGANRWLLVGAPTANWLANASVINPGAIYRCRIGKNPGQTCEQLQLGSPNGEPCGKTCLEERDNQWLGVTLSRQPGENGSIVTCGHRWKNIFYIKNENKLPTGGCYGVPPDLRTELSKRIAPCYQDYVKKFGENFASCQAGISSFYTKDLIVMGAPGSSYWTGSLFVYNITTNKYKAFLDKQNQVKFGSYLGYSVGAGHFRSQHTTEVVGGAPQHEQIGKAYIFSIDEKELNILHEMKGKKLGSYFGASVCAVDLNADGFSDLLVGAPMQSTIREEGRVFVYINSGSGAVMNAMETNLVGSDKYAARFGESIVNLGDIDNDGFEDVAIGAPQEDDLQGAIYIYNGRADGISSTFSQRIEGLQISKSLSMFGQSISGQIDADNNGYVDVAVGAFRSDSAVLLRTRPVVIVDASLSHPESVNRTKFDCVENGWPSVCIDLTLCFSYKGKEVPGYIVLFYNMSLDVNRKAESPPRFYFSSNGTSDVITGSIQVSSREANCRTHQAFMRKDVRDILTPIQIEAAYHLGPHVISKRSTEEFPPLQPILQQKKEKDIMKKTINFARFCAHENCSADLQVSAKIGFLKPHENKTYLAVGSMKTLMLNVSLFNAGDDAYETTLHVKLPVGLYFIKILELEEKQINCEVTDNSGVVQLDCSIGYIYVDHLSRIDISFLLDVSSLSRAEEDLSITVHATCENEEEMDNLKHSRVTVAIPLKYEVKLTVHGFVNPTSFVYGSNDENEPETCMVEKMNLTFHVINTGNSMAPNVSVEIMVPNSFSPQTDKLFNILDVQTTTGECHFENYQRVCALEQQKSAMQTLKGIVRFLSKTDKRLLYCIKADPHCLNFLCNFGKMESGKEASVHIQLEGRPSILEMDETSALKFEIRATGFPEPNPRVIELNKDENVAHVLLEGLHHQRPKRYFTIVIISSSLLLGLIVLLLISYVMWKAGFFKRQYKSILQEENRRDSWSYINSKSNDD
Sequence of α4β7 integrin (P26010 20-798): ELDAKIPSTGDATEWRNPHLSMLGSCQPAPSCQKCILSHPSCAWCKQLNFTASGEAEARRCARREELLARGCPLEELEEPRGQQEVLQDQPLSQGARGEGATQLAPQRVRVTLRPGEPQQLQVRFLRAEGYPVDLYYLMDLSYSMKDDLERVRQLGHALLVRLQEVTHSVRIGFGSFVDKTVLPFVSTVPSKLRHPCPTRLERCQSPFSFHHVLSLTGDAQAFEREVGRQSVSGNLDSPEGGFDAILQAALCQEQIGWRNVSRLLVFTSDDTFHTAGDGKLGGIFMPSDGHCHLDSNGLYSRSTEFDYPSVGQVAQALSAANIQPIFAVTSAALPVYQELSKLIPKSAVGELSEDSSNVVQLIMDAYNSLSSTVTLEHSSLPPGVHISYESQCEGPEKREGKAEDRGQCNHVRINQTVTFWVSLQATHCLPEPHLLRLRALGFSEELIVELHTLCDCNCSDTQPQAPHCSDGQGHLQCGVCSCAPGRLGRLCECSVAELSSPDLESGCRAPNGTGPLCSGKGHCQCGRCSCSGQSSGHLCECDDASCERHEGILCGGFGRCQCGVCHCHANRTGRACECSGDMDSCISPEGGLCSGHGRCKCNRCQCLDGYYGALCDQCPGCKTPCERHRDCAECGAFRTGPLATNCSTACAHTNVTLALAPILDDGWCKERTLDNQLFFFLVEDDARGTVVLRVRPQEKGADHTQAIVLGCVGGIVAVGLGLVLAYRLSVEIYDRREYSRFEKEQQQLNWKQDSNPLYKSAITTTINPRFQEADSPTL

EC50 [1] [nM]	EC50 [2] [nM]	SMILES	also measured
4.1	–	CN(C)c1cccnc1-c1ccc(C[C@H](NC(=O)c2c(F)cc(N3CCOC[C@@H]3C(F)(F)F)cc2F)C(=O)O)c2cccnc12 [Example 101, (S)-2-(2,6-difluoro-4-((R)-3-(trifluoromethyl)morpholino)benzamido)-3-(8-(3-(dimethylamino)pyridin-2-yl)quinolin-5-yl)propanoic acid]	–
–	0.3	Cn1c(C2CC2)cc(C(F)(F)F)c(-c2ccc(C[C@H](NC(=O)c3c(F)cc(N4CCOC[C@@H]4C(F)(F)F)cc3F)C(=O)O)c3cccnc23)c1=O [Example 158]	–
–	–	Cc1cc(C(F)(F)F)c(-c2ccc(C[C@H](NC(=O)c3c(F)cc(N4CCCOCC4)cc3F)C(=O)O)c3cccnc23)c(=O)n1C [Example 441]	EC50 [3]: 0.412 nM
0.2	–	CC[C@@H](Nc1cc(F)c(C(=O)N[C@@H](Cc2ccc(-c3c(C(F)(F)F)cc(C)n(C)c3=O)c3ncccc23)C(=O)O)c(Cl)c1)C(F)(F)F [Example 144, (S)-2-(2-chloro-6-fluoro-4-(((R)-1,1,1-trifluorobutan-2-yl)amino)benzamido)-3-(8-(1,6-dimethyl-2-oxo-4-(trifluoromethyl)-1,2-dihydropyridin-3-yl)quinolin-5-yl)propanoic acid]	–
0.6	–	CC[C@@H](Nc1cc(F)c(C(=O)N[C@@H](Cc2ccc(-c3c(C)n(C)c(=O)n(C)c3=O)c3ncccc23)C(=O)O)c(F)c1)C(F)(F)F [Example 114, (S)-2-(2,6-difluoro-4-(((R)-1,1,1-trifluorobutan-2-yl)amino)benzamido)-3-(8-(1,3,6-trimethyl-2,4-dioxo-1,2,3,4-tetrahydropyrimidin-5-yl)quinolin-5-yl)propanoic acid]	–
60.6	–	N#Cc1ccc(-c2ccc(C[C@H](NC(=O)c3c(F)cc(N[C@@H](C4CC4)C(F)(F)F)cc3F)C(=O)O)c3cccnc23)c(Cl)c1 [Example 148]	–
–	1.8	CC[C@@H](Nc1cc(F)c(C(=O)N[C@@H](Cc2ccc(-c3nc(N)ccc3C(F)(F)F)c3ncccc23)C(=O)O)c(F)c1)C(F)(F)F [Example 208]	–
1.5	–	CC[C@@H](Nc1cc(F)c(C(=O)N[C@@H](Cc2ccc(-c3cnc(C)n(C)c3=O)c3ncccc23)C(=O)O)c(F)c1)C(F)(F)F [Example 118, (S)-2-(2,6-difluoro-4-(((R)-1,1,1-trifluorobutan-2-yl)amino)benzamido)-3-(8-(1,2-dimethyl-6-oxo-1,6-dihydropyrimidin-5-yl)quinolin-5-yl)propanoic acid]	–
–	–	Cc1cc(N2CCOC[C@@H]2C(F)(F)F)cc(F)c1C(=O)N[C@@H](Cc1ccc(-c2cc(N(C)C)c(C)n(C)c2=O)c2ncccc12)C(=O)O [Example 450]	EC50 [3]: 1.02 nM
–	1.9	Cc1ccnc(-c2ccc(C[C@H](NC(=O)c3c(F)cc(N4CCOC[C@@H]4C(F)(F)F)cc3F)C(=O)O)c3cccnc23)c1N(C)C [Example 212]	–
–	–	Cc1cc(N2CCOC[C@@H]2C(F)(F)F)cc(F)c1C(=O)N[C@@H](Cc1ccc(-n2c(=O)c3cccnc3n(C)c2=O)c2ncccc12)C(=O)O [Example 432]	EC50 [3]: 0.11 nM
7	–	Cc1cc(C(F)(F)F)c(-c2ccc(C[C@H](NC(=O)c3c(F)cccc3F)C(=O)O)c3cccnc23)nc1C [Example 12, (S)-2-(2,6-difluorobenzamido)-3-(8-(5,6-dimethyl-3-(trifluoromethyl)pyridin-2-yl)quinolin-5-yl)propanoic acid]	–
–	13.6	CC[C@@H](Nc1cc(F)c(C(=O)N[C@@H](Cc2ccc(-c3ncccc3N(C)C)c3ncccc23)C(=O)O)c(F)c1)C(F)(F)F [Example 315]	–
–	1.6	Cc1c(-c2ccc(C[C@H](NC(=O)c3c(F)cc(CS(=O)(=O)c4ccccc4)cc3F)C(=O)O)c3cccnc23)c(=O)n(C)c(=O)n1C [Example 203]	–
–	86.1	CC(O)(c1cc(F)c(C(=O)N[C@@H](Cc2ccc(-c3ccc(C#N)cc3Cl)c3ncccc23)C(=O)O)c(F)c1)C(F)(F)F (some centres unmarked) [Example 280]	–
0.4	–	Cc1cc(C(F)(F)F)c(-c2ccc(C[C@H](NC(=O)c3c(F)cc(N4CCO[C@H](C)[C@@H]4C(F)(F)F)cc3F)C(=O)O)c3cccnc23)c(=O)n1C [Example 137, (S)-2-(2,6-difluoro-4-((2R,3R)-2-methyl-3-(trifluoromethyl)morpholino)benzamido)-3-(8-(1,6-dimethyl-2-oxo-4-(trifluoromethyl)-1,2-dihydropyridin-3-yl)quinolin-5-yl)propanoic acid]	–
30.5	–	Cc1ccccc1-c1ccc(C[C@H](NC(=O)c2c(F)cc(NS(=O)(=O)c3ccc(-c4ccnc(F)c4)cc3)cc2F)C(=O)O)c2cccnc12 [Example 63, (S)-2-(2,6-difluoro-4-((4-(2-fluoropyridin-4-yl)phenyl)sulfonamido)benzamido)-3-(8-(o-tolyl)quinolin-5-yl)propanoic acid]	–
–	13.7	O=C(N[C@@H](Cc1ccc(NC(=O)c2c(Cl)cncc2Cl)c2ncccc12)C(=O)O)c1c(F)cccc1F [Example 316]	–
–	–	COc1cc2c(=O)n(-c3ccc(C[C@H](NC(=O)c4c(F)cc(N5CCOC[C@@H]5C(F)(F)F)cc4F)C(=O)O)c4cccnc34)c(=O)n(C)c2cn1 [Example 428]	EC50 [3]: 0.18 nM
–	0.4	COc1cc(C)n(C)c(=O)c1-c1ccc(C[C@H](NC(=O)c2c(F)cc(N[C@H](C3CC3)C(F)(F)F)cc2F)C(=O)O)c2cccnc12 [Example 166]	–
–	62.3	C[C@H](NC(=O)c1cc(F)c(C(=O)N[C@@H](Cc2ccc(-c3ccc(C#N)cc3Cl)c3ncccc23)C(=O)O)c(F)c1)C(F)(F)F [Example 195]	–
56.7	–	CC(O)Cc1cc(F)c(C(=O)N[C@@H](Cc2ccc(-c3ccc(C#N)cc3Cl)c3ncccc23)C(=O)O)c(F)c1 (stereo partly drawn) [Example 24, (2S)-3-(8-(2-chloro-4-cyanophenyl)quinolin-5-yl)-2-(2,6-difluoro-4-(2-hydroxypropyl)benzamido)propanoic acid]	–
0.2	–	CC[C@@H](Nc1cc(F)c(C(=O)N[C@@H](Cc2ccc(-c3c(C(F)(F)F)cc(C)n(C)c3=O)c3ncccc23)C(=O)O)c(F)c1)C(F)(F)F (single isomer, unassigned) [Example 107]	–
–	0.5	CC[C@@H](N(c1cc(F)c(C(=O)N[C@@H](Cc2ccc(-c3c(C(F)(F)F)cc(C)n(C)c3=O)c3ncccc23)C(=O)O)c(F)c1)C1CC1)C(F)(F)F [Example 172]	–
–	–	Cn1c(=O)n(-c2ccc(C[C@H](NC(=O)c3c(F)cc(N4CCOC[C@@H]4C(F)(F)F)cc3F)C(=O)O)c3cc(F)cnc23)c(=O)c2cnccc21 [Example 430]	EC50 [3]: 0.469 nM
–	2.9	Cc1cc(C(F)(F)F)c(-c2ccc(C[C@H](NC(=O)c3c(F)cc(N4CC[C@@H]4C(F)(F)F)cc3F)C(=O)O)c3cccnc23)c(=O)n1C [Example 244]	–

SMILES	EC50 [1] [nM]	EC50 [2] [nM]	also measured
CC(C)(O)C#Cc1cc(Cl)c(C(=O)N[C@@H](Cc2ccc(-c3ccc(C#N)cc3Cl)c3ncccc23)C(=O)O)c(Cl)c1 [Example 29, (S)-3-(8-(2-chloro-4-cyanophenyl)quinolin-5-yl)-2-(2,6-dichloro-4-(3-hydroxy-3-methylbut-1-yn-1-yl)benzamido)propanoic acid]	68.7	–	–
N#Cc1ccc(-c2ccc(C[C@H](NC(=O)c3c(F)cc(C(=O)O)cc3F)C(=O)O)c3cccnc23)c(Cl)c1 [Example 25, (S)-4-((1-carboxy-2-(8-(2-chloro-4-cyanophenyl)quinolin-5-yl)ethyl)carbamoyl)-3,5-difluorobenzoic acid]	3.3	–	–
CC[C@@H](Nc1cc(F)c(C(=O)N[C@@H](Cc2ccc(-c3c(C)c4cc(F)ccc4n(C)c3=O)c3ncccc23)C(=O)O)c(F)c1)C(F)(F)F (atropisomer, axis not shown) [Example 185]	–	1	–
